According to US7501453B2, “Cyclopropanes with central nervous system activity” (The Research Foundation of State University of New York, priority 2006, dated 2009):
Read-outs that look alike come from different tables or passages of the source.

Key:
[1] = target: T1, hSERT (Homo sapiens, UniProt P31645); experiment: Inhibition of [125I]RTI-55 binding to hSERT in HEK293 cell membranes
T1 construct: expressed in transfected cells; host or cells: HEK293
Method: (§1) Unknowns are weighed and dissolved in DMSO to make a 10 mM stock solution. An initial dilution to 50 μM in assay buffer for binding, or to 1 mM in water for uptake, is made. Subsequent dilutions are made with assay buffer supplemented with DMSO, maintaining a final concentration of 0.1% DMSO. Pipetting is conducted using a Biomek 2000 robotic workstation.
(§2) Inhibition of Radioligand Binding of [125I]RTI-55 to hDAT, hSERT or hNET in Colonla Cells
(§3) Cell preparation: HEK293 cells expressing hDAT, hSERT or hNET inserts are grown to 80% confluence on 150 mm diameter tissue culture dishes and serve as the tissue source. Cell membranes are prepared as follows. Medium is poured off the plate, and the plate is washed with 10 ml of calcium- and magnesium-free phospate-buffered saline. Lysis buffer (10 ml; 2 mM HEPES with 1 mm EDTA) is added. After 10 min, cells are scraped from plates, poured into centrifuge tubes, and centrifuged […] for 20 min. The supernatant fluid is removed, and the pellet is resuspended in 12-32 ml of 0.32 m sucrose using a Ploytron at setting 7 for 10 sec. The resuspension volume depends on the density of binding sites within a cell line and is chosen to reflect binding of 10% or less to the total radioactivity.
(§4) Assay conditions: Each assay tube contains 50 μl of membrane preparation (about 10-15 μg of protein), 25 μl of unknown compound used to define non-specific binding, or buffer(Krebs-HEPES, pH 7.4;122 mM NaCl, 2.5 mM CaCl2, 1.2 mM MgSO4, 10 μM pargyline, 100 μM tropolone,0.2% glucose and 0.2% ascorbic acid, buffered with 25 mM HEPES) […] of [125I]RTI-55 (40-80 pM final concentration) and additional buffer sufficient to bring up the final volume to 250 μl. Membranes are preincubated with unknowns for 10 min prior to the addition of [125I]RTI-55. The assay tubes are incubated to 25° C. for 90 min. Binding is terminated by filtration over GF/F filters using Tomtec 96-well cell harvester. Fliter are washed for six seconds with ice cold saline. Scintillation fluid is added to each square and radioactivity remaining on the filter is determined using Wallac μ- or beta plate reader. Specific binding is defined as the difference in binding observed in the presence and absence of 5 μM mazindol (HEK-hDAT and HEK-hNET) or […] imipramine (HEK-hSERT). Two or three independent competition experiments are conducted with duplicate determinations. GraphPAD Prism is used to analyze the ensuing data, with IC50 values converted to Ki values using the Cheng-Prusoff equation (Ki=IC50/(1+([125I]RTI-55/KdRTI55))).

[2] = target: T2, hDAT (Homo sapiens, UniProt Q01959); experiment: Inhibition of [125I]RTI-55 binding to hDAT in HEK293 cell membranes; conditions: [125I]RTI-55 displacement, HEK-hDAT membranes; IC50 converted to Ki (Cheng-Prusoff); read-out: Transporter DAT
T2 construct: expressed in transfected cells; host or cells: HEK293
Method: as §1, §2, §3, §4

[3] = target: T3, hNET (Homo sapiens, UniProt P23975); experiment: Inhibition of [125I]RTI-55 binding to hNET in HEK293 cell membranes; conditions: [125I]RTI-55 displacement, HEK-hNET membranes; IC50 converted to Ki (Cheng-Prusoff); read-out: Transporter NET
T3 construct: expressed in transfected cells; host or cells: HEK293
Method: as §1, §2, §3, §4

[4] = [125I]RTI-55 displacement, HEK-hSERT membranes, IC50 converted to Ki (Cheng-Prusoff), read-out: Transporter SERT

T2 sequence (Q01959 whole entry): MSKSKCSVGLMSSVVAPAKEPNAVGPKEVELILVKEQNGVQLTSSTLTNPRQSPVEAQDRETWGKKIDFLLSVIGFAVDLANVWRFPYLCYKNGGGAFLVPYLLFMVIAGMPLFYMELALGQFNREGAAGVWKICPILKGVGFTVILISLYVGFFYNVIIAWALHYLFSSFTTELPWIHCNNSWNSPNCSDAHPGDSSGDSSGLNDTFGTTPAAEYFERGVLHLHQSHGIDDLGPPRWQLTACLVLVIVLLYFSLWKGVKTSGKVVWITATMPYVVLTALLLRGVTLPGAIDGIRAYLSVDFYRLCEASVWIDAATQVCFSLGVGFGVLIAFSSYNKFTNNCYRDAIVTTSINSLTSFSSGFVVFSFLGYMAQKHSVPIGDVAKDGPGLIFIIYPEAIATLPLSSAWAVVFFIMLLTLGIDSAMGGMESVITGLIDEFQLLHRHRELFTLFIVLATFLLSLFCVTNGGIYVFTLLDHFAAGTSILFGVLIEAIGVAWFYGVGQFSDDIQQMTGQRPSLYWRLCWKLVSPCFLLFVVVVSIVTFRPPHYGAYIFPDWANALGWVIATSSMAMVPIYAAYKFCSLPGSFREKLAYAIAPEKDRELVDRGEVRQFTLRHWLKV
T1 sequence (P31645 whole entry): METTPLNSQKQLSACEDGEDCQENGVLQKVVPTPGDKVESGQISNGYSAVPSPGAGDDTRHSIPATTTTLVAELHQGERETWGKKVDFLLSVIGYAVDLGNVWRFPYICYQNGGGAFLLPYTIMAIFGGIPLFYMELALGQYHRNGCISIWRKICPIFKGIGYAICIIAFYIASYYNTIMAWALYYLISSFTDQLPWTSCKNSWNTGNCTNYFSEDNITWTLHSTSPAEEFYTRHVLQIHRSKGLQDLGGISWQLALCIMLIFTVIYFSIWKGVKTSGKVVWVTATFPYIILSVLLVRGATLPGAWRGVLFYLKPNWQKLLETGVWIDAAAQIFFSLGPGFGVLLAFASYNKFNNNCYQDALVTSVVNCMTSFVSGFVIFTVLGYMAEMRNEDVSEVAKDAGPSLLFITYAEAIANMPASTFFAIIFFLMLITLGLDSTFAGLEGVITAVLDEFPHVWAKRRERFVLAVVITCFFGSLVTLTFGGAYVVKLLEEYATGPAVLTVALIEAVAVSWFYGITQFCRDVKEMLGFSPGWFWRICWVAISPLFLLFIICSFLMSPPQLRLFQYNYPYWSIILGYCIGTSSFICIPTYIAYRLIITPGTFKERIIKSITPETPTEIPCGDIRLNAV
T3 sequence (P23975 whole entry): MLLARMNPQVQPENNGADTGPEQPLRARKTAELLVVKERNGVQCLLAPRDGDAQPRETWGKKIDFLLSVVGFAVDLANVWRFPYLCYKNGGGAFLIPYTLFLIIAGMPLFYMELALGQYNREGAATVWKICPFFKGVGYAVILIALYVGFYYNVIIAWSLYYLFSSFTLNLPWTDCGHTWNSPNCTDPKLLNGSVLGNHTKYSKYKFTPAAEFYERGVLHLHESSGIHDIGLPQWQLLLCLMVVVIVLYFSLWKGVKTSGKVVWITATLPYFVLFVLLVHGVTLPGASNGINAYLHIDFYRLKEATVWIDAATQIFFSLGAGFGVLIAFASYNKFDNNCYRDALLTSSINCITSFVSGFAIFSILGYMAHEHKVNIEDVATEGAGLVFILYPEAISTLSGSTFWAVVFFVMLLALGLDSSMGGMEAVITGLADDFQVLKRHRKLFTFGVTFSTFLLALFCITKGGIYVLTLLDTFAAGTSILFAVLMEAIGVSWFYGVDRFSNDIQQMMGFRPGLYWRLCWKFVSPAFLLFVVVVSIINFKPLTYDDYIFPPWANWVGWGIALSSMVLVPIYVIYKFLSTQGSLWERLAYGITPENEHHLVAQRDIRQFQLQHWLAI

| Compound | Ki [1, 4] [nM] | Ki [2] [nM] | Ki [3] [nM] | Ki [1] [nM] |
| --- | --- | --- | --- | --- |
| CNC[C@]1(c2ccc(Cl)c(Cl)c2)C[C@H]1c1ccccc1 [32,222] | 4600 | 6600 | > 10000 |  |
| CNC[C@@]1(c2ccc(Cl)c(Cl)c2)C[C@@H]1c1ccc(Cl)c(Cl)c1 [compound 32695] | 172 | 730 | 2900 |  |
| CNC[C@]1(c2ccccc2)C[C@H]1c1ccc2ccccc2c1 [compound 32698] |  | 1600 | 1270 | 14 |
| CNC[C@]1(c2ccccc2)C[C@H]1c1ccc(Cl)c(Cl)c1 [32,220] |  | 1450 | 1460 | 45 |
| CNC[C@@]1(c2ccc(Cl)c(Cl)c2)C[C@@H]1c1ccccc1 [32,221] | 1040 | 1380 | 3130 |  |
| CNC[C@]1(c2ccc(Cl)c(Cl)c2)C[C@H]1c1ccc(Cl)c(Cl)c1 [compound 32694] | 1530 | 1260 | 3700 |  |
| CNC[C@@]1(c2ccccc2)C[C@@H]1c1ccccc1 [compound 32697] | > 10000 | > 5300 | 3900 |  |
| CNC[C@@]1(c2ccccc2)C[C@@H]1c1ccc(Cl)c(Cl)c1 [32,219] | 114 | 218 | 1870 |  |
| CNC[C@]1(c2ccccc2)C[C@H]1c1ccccc1 [compound 32696] | > 7300 | 4650 | 4300 |  |
